This note sets out measurements from article PMC6199744, “Development of Chemical Proteomics for the Folateome and Analysis of the Kinetoplastid Folateome” (ACS Infectious Diseases, 2018).

What all share (type): binding
In assay [1] the target is T1, HeLa cell extract proteins (Homo sapiens, UniProt Q05048).
T1 construct: endogenous in cells; host or cells: HeLa cell extract
T1 sequence (Q05048 1-431): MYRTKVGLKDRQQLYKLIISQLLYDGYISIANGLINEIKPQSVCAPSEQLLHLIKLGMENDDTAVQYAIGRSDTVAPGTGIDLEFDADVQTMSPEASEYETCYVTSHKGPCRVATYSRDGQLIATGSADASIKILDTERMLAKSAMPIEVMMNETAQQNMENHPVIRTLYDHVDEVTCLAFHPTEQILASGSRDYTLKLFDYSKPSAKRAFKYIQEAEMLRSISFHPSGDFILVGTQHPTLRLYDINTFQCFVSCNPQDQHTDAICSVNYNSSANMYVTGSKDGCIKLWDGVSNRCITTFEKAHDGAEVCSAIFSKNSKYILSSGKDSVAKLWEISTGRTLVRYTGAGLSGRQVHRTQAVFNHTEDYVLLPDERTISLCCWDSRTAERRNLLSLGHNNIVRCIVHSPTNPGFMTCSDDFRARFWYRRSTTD

The target of assay [2] is T2, HeLa cell extract proteins (Homo sapiens, UniProt Q9UL46).
T2 construct: endogenous in cells; host or cells: HeLa cell extract

Assay [3] deals with T3, HeLa cell extract proteins (Homo sapiens, UniProt P06454).
T3 construct: endogenous in cells; host or cells: HeLa cell extract
T3 sequence (P06454 1-111): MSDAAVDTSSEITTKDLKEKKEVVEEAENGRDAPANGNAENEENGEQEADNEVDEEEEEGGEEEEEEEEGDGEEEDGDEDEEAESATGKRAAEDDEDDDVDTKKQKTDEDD

Assay [4] concerns the target T4, HeLa cell extract proteins (Homo sapiens, UniProt P24752).
T4 construct: endogenous in cells; host or cells: HeLa cell extract
T4 sequence (P24752 34-427): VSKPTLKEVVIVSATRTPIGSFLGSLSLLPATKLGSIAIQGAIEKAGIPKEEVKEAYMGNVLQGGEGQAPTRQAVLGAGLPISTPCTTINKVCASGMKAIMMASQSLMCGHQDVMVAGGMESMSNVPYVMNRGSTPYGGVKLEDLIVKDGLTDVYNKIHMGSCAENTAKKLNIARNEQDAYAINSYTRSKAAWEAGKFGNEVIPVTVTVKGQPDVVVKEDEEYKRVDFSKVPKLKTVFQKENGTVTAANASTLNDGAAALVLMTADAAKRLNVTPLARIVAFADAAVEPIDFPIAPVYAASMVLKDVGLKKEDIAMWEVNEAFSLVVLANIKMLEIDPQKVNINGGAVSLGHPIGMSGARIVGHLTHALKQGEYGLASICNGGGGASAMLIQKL

Assay [5] has as its target T5, HeLa cell extract proteins (Homo sapiens, UniProt O00303).
T5 construct: endogenous in cells; host or cells: HeLa cell extract

In assay [6] the target is T6, HeLa cell extract proteins (Homo sapiens, UniProt Q96EY1).
T6 construct: endogenous in cells; host or cells: HeLa cell extract
T6 sequence (Q96EY1 1-480): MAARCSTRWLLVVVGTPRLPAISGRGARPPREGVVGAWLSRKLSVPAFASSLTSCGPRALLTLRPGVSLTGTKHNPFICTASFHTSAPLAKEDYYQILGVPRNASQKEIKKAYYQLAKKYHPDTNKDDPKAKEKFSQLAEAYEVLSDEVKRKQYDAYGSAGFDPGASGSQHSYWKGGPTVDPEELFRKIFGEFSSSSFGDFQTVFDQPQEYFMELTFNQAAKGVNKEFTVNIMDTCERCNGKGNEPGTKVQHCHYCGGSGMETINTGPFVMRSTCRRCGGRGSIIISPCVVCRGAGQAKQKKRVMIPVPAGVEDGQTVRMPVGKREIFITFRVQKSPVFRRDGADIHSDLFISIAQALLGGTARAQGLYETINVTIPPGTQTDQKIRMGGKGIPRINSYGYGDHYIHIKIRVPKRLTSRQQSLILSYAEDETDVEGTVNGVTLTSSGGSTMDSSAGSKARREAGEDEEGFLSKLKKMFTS

The target of assay [7] is T7, HeLa cell extract proteins (Homo sapiens, UniProt O95456).
T7 construct: endogenous in cells; host or cells: HeLa cell extract
T7 sequence (O95456 1-288): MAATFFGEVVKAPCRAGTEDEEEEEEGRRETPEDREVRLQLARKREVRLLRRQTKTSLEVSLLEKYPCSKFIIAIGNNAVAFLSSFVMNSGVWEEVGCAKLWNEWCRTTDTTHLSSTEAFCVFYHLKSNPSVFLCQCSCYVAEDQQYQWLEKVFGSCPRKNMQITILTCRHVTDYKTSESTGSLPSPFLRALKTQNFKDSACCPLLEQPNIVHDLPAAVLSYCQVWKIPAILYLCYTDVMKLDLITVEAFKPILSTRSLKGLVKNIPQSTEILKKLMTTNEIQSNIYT

In assay [8] the target is T8, HeLa cell extract proteins (Homo sapiens, UniProt P30041).
T8 construct: endogenous in cells; host or cells: HeLa cell extract
T8 sequence (P30041 1-224): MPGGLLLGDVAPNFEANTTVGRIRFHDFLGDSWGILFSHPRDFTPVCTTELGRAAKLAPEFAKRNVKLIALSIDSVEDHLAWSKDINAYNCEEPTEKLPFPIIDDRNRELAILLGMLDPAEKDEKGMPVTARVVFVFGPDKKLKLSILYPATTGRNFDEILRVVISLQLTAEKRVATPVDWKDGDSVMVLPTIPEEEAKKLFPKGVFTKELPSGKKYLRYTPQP

In assay [9] the target is T9, HeLa cell extract proteins (Homo sapiens, UniProt P50454).
T9 construct: endogenous in cells; host or cells: HeLa cell extract
T9 sequence (P50454 19-418): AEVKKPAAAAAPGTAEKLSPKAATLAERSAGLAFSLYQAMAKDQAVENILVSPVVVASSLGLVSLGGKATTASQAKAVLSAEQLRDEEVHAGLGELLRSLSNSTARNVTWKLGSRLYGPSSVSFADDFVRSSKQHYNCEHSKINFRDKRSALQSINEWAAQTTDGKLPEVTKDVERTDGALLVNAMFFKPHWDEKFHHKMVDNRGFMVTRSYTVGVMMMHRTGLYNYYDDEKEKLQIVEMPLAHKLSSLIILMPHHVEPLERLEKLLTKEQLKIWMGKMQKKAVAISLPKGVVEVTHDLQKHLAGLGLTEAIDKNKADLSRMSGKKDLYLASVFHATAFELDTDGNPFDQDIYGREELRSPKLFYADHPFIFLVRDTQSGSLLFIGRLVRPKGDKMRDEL

Assay [10] addresses T10, HeLa cell extract proteins (Homo sapiens, UniProt P00338).
T10 construct: endogenous in cells; host or cells: HeLa cell extract

The mark [11] stands for this setting: HeLa, protein PTMA (15 KDA PROTEIN.).
Setting [12] is: HeLa, protein PRDX6 (PEROXIREDOXIN-6.).
[13] abbreviates: HeLa, protein LDHA (ISOFORM 1 OF L-LACTATE DEHYDROGENASE A CHAIN.).

Like-named read-outs stand apart in the source and are kept apart here.

T5 sequence (O00303 whole entry): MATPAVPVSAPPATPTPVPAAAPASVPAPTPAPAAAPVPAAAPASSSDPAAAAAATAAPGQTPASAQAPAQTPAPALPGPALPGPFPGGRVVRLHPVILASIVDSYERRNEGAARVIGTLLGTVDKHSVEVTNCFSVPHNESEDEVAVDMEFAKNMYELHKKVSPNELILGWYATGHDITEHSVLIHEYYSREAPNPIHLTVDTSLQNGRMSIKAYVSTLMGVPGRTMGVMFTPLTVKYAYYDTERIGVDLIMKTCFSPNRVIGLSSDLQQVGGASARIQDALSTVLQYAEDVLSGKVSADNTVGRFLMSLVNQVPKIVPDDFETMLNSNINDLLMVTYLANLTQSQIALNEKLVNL
T2 sequence (Q9UL46 whole entry): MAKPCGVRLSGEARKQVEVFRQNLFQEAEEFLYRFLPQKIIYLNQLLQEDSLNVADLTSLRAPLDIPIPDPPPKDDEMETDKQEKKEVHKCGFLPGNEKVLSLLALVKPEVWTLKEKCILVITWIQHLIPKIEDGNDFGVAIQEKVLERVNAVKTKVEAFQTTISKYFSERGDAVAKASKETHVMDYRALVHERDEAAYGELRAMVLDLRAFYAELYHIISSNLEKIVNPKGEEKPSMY

Consider `CCCCCCOc1cccc(Cc2cnc(N)nc2N)c1` [compound 2], for which the “fold changes relative to vehicle control” value in assay [1] (HeLa, protein CSTF1) was determined as 0.99; in assay [2] (protein PSME2, HeLa) it was 1.38; in assay [3] (setting [11]), 3.52 fold; in assay [4] (protein ACAT1, HeLa) it was 1.75; in assay [5] (HeLa, protein EIF3F), 1.24; in [6] (captured protein DNAJA3, HeLa) it was 1.16. Besides, the “fold changes relative to vehicle control” value in assay [7] (HeLa, protein PSMG1) is 0.91; in assay [8] (setting [12]), 2.27 fold; in [9] (protein SERPINH1, HeLa), 1.61; in [10] (setting [13]), 2.61 fold.
As to `NCCOCCOCC(=O)Nc1nc2ncc(CNc3ccc(C(=O)NC(CCC(=O)O)C(=O)O)cc3)nc2c(=O)[nH]1` (stereo not shown) [compound 6], the “fold changes relative to vehicle control” value was 0.88 in assay [1] (HeLa, captured protein CSTF1); 0.95 in assay [2] (HeLa, protein PSME2); 0.89 in assay [3] (protein PTMA, HeLa); 1.31 in assay [4] (protein ACAT1, HeLa); 0.96 in assay [5] (protein EIF3F, HeLa); 1.2 in assay [6] (protein DNAJA3, HeLa). Besides, the “fold changes relative to vehicle control” value in [7] (HeLa, captured protein PSMG1) was 0.76; in assay [8] (HeLa, protein PRDX6), 1.33; in assay [9] (HeLa, protein SERPINH1), 1.21; in assay [10] (HeLa, protein LDHA) it was 1.23.
Take `CCCCCCOc1ccc(Cc2cnc(N)nc2N)cc1` [compound 1]: the “fold changes relative to vehicle control” value turned out to be 1.05 in assay [1] (HeLa, protein CSTF1); 1.01 in assay [2] (protein PSME2, HeLa); 1.18 fold in assay [3] (setting [11]); 1.22 in assay [4] (protein ACAT1, HeLa); 0.93 in assay [5] (HeLa, protein EIF3F); 0.84 in assay [6] (captured protein DNAJA3, HeLa). In addition, the “fold changes relative to vehicle control” value in assay [7] (HeLa, protein PSMG1) came to 0.9; in assay [8] (setting [12]), 1.45 fold; in [9] (protein SERPINH1, HeLa), 1.07; in assay [10] (setting [13]) it was 1.48 fold.
Turning to `Nc1nc2c(c(=O)[nH]1)N(C=O)C(CNc1ccc(C(=O)N[C@@H](CCC(=O)O)C(=O)O)cc1)CN2` (stereo partly shown) [LEU, leucovorin], the “fold changes relative to vehicle control” value in assay [1] (HeLa, captured protein CSTF1) is reported as 1; in assay [2] (HeLa, protein PSME2) it was 0.94; in assay [3] (protein PTMA, HeLa) it was 0.82; in assay [4] (protein ACAT1, HeLa) it was 1; in assay [5] (protein EIF3F, HeLa) it was 0.95; in assay [6] (protein DNAJA3, HeLa) it was 0.8. In addition, the “fold changes relative to vehicle control” value in assay [7] (HeLa, captured protein PSMG1) was found to be 0.9; in assay [8] (HeLa, protein PRDX6) it was 1.05; in assay [9] (HeLa, protein SERPINH1), 0.99; in assay [10] (HeLa, protein LDHA) it was 1.07.
In the case of `NCCCNc1ccc(C(=O)NC(CCC(=O)O)C(=O)O)cc1` (stereo not shown) [compound 7], the “fold changes relative to vehicle control” value was 1.02 in assay [1] (HeLa, captured protein CSTF1); 0.89 in assay [2] (HeLa, protein PSME2); 0.72 in [3] (protein PTMA, HeLa); 0.87 in [4] (protein ACAT1, HeLa); 1.01 in assay [5] (protein EIF3F, HeLa); 1.06 in [6] (protein DNAJA3, HeLa). Moreover, the “fold changes relative to vehicle control” value is 0.98 in assay [7] (HeLa, captured protein PSMG1); 1.01 in [8] (HeLa, protein PRDX6); 0.98 in [9] (HeLa, protein SERPINH1); 0.95 in assay [10] (HeLa, protein LDHA).
Regarding `Nc1nc2[nH]cc(CCc3ccc(C(=O)N[C@@H](CCC(=O)O)C(=O)O)cc3)c2c(=O)[nH]1` [PTX, pemetrexed], the “fold changes relative to vehicle control” value in assay [1] was 0.99; in assay [2], 0.9; in [3] it was 0.97; in [4], 0.9; in [5] it was 0.92; in [6], 0.84. The “fold changes relative to vehicle control” value is 0.81 in assay [7], 1.21 in assay [8], 1.08 in assay [9] and 1.15 in [10].
In the case of `Nc1nc2cccc(-c3ccccc3)c2n1Cc1ccc(Cl)c(Cl)c1` [compound 3], the “fold changes relative to vehicle control” value in [1] (HeLa, protein CSTF1) came out at 0.98; in [2] (protein PSME2, HeLa), 0.93; in assay [3] (setting [11]) it was 0.68 fold; in [4] (protein ACAT1, HeLa), 0.84; in [5] (HeLa, protein EIF3F), 1.05; in [6] (captured protein DNAJA3, HeLa) it was 1.05. Moreover, the “fold changes relative to vehicle control” value in [7] (HeLa, protein PSMG1) is listed as 1.03; in assay [8] (setting [12]) it was 0.92 fold; in assay [9] (protein SERPINH1, HeLa) it was 0.93; in [10] (HeLa, protein LDHA (ISOFORM 1 OF L-LACTATE DEH[…] CHAIN.)), 0.92 fold.
